Data as given in US9783532B2, “Molecules having certain pesticidal utilities, and intermediates, compositions, and processes related thereto” (Dow AgroSciences LLC, priority 2013, dated 2017).

Experiments:
Format in all cases: in vivo
[1] = tested on: Beet Armyworm (Spodoptera exigua) ("BAW"); assay: Bioassay on beet armyworm (BAW), 128-well diet tray assay; conditions: for mortality at 50 µg/cm2: 168 h, 50 μg/cm^2 on artificial diet, second instar BAW larvae, 25° C., five to seven days, average of eight wells, read-out: BAW % Control (or Mortality) rating
In short: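 Second-instar larvae (one to five per well) were placed on artificial diet surface-treated with 50 μg/cm^2 compound applied in 90:10 acetone-water and dried, eight wells per compound. Held at 25° C., 14:10 light-dark for five to seven days; percent mortality was scored per well and averaged over the eight wells.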

[2] = tested on: Cabbage Looper (Trichoplusia ni) ("CL"); assay: Bioassay on cabbage looper (CL), 128-well diet tray assay; conditions: for mortality at 50 µg/cm2: 168 h, 50 μg/cm^2 on artificial diet, second instar CL larvae, 25° C., five to seven days, average of eight wells, read-out: CL % Control (or Mortality) rating
In short: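 Second-instar larvae (one to five per well) placed on artificial diet surface-treated with 50 μg/cm^2 compound in 90:10 acetone-water, dried before infestation. Held 25 °C, 14:10 light-dark for five to seven days; percent mortality scored per well and averaged over eight wells.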

[3] = tested on: Green Peach Aphid ("GPA") (Myzus persicae); assay: Bioassay on green peach aphid (GPA), foliar spray on cabbage seedlings; conditions: for mortality at 200 ppm: Myzus persicae, foliar, 72 h, 200 ppm spray on infested cabbage seedlings, three days, Abbott corrected % control, read-out: GPA % Control (or Mortality) rating
Protocol: Certain molecules disclosed in this document were tested against GPA using procedures described in the following example. In the reporting of the results, the “GPA Rating Table” was used (See Table Section).
Cabbage seedlings grown in 3-inch pots, with 2-3 small (3-5 cm) true leaves, were used as test substrate. The seedlings were infested with 20-50 GPA (wingless adult and nymph stages) one day prior to chemical application. Four pots with individual seedlings were used for each treatment. Test compounds (2 mg) were dissolved in 2 mL of acetone/methanol (1:1) solvent, forming stock solutions of 1000 ppm test compound. The stock solutions were diluted 5× with 0.025% Tween 20 in water to obtain the solution at 200 ppm test compound. A hand-held aspirator-type sprayer was used for spraying a solution to both sides of […] leaves until runoff. Reference plants (solvent check) were sprayed with the diluent only containing 20% by volume of acetone/methanol (1:1) solvent. Treated plants were held in a holding room for three days at approximately 25° C. and ambient relative humidity (RH) prior to grading. Evaluation was conducted by counting the number of live aphids per plant under a microscope. Percent Control was measured by using Abbott's correction formula (W. S. Abbott, “A Method of Computing the Effectiveness of an Insecticide” J. Econ. Entomol. 18 (1925), pp. 265-267) as follows. Corrected % Control=100*(X−Y)/X • where • X=No. of live aphids on solvent check plants and • Y=No. of live aphids on treated plants

[4] = tested on: Yellow Fever Mosquito "YFM" (Aedes aegypti); conditions: for YFM % Control (or Mortality) rating: about 1 day-old larvae, 96-well plate, room temperature, 3 days
In short: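 About 1 day-old Aedes aegypti larvae in liver-powder water added to wells holding compound diluted from 4000 ppm DMSO stock with 90:10 water:acetone, 6 replicate plates. Plates kept covered at room temperature for 3 days. Wells scored for mortality and reported as rating categories.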

[5] = Table ABC (FB), activity rating class

Structure (SMILES): CCC(Cc1ccc(-c2ncn(-c3ccc(OC(F)(F)F)cc3)n2)cc1)NC(=O)/N=C1\SCC(=O)N1c1cc(Cl)ccc1C(C)C (centres unmarked) [FB44, (Z)-1-(3-(5-chloro-2-isopropylphenyl)-4-oxothiazolidin-2-ylidene)-3-(1-(4-(1-(4-(trifluoromethoxy)phenyl)-1H-1,2,4-triazol-3-yl)phenyl)butan-2-yl)urea]
- pest or weed control at 50 µg/cm2 ([1]; Table ABC (FB), activity rating class, read-out: BAW (Biological Results, Insect species)): 50 to 100%
- pest or weed control at 50 µg/cm2 ([2]; Table ABC (FB), activity rating class, read-out: CL (Biological Results, Insect species)): 50 to 100%
- GPA (Biological Results, Insect species) [3, 5]: B (More than 0-Less than 80)
- YFM (Biological Results, Insect species) [4, 5]: A (80-100)

Structure (SMILES): CC(C)c1cc(F)ccc1N1C(=O)CS/C1=N\C(=O)NCCc1ccc(-c2ncn(-c3ccc(OC(F)(F)F)cc3)n2)cc1 [P28, (Z)-1-(3-(4-fluoro-2-isopropylphenyl)-4-oxothiazolidin-2-ylidene)-3-(4-(1-(4-(trifluoromethoxy)phenyl)-1H-1,2,4-triazol-3-yl)phenethyl)urea]
- mortality at 50 µg/cm2 [1]: 50 to 100%
- mortality at 50 µg/cm2 [2]: 50 to 100%
- mortality at 200 ppm [3]: 0%
- YFM % Control (or Mortality) rating [4]: A (80-100)

Structure (SMILES): COc1ccc(N2C(=O)CS/C2=N\C(=O)NCCc2ccc(-c3ncn(-c4ccc(OC(F)(F)F)cc4)n3)cc2)c(C)c1 [P44, (Z)-1-(3-(4-methoxy-2-methylphenyl)-4-oxothiazolidin-2-ylidene)-3-(4-(1-(4-(trifluoromethoxy)phenyl)-1H-1,2,4-triazol-3-yl)phenethyl)urea]
- mortality at 50 µg/cm2 [1]: 50 to 100%
- mortality at 50 µg/cm2 [2]: 50 to 100%
- mortality at 200 ppm [3]: 0%
- YFM % Control (or Mortality) rating [4]: A (80-100)

Structure (SMILES): CC(C)c1cccc(N2C(=O)CS/C2=N\C(=O)NCCc2ccc(-c3ncn(-c4ccc(OC(F)(F)F)cc4)n3)cc2)c1 [P51, (Z)-1-(3-(3-isopropylphenyl)-4-oxothiazolidin-2-ylidene)-3-(4-(1-(4-(trifluoromethoxy)phenyl)-1H-1,2,4-triazol-3-yl)phenethyl)urea]
- mortality at 50 µg/cm2 [1]: 50 to 100%
- mortality at 50 µg/cm2 [2]: 50 to 100%
- mortality at 200 ppm [3]: 0 to 80%
- YFM % Control (or Mortality) rating [4]: A (80-100)

Structure (SMILES): Cc1ccc(C(C)C)c(N2C(=O)CS/C2=N\C(=O)NCCc2ccc(-c3ncn(-c4ccc(C(F)(F)F)cc4)n3)cc2)c1 [P52, (Z)-1-(3-(2-isopropyl-5-methylphenyl)-4-oxothiazolidin-2-ylidene)-3-(4-(1-(4-(trifluoromethyl)phenyl)-1H-1,2,4-triazol-3-yl)phenethyl)urea]
- mortality at 50 µg/cm2 [1]: 50 to 100%
- mortality at 50 µg/cm2 [2]: 50 to 100%
- mortality at 200 ppm [3]: 0%
- YFM % Control (or Mortality) rating [4]: A (80-100)

Structure (SMILES): CCc1ccccc1N1C(=O)CS/C1=N\C(=O)NCCCCc1ccc(-c2ncn(-c3ccc(OC(F)(F)F)cc3)n2)cc1 [P145, P522, (Z)-1-(3-(2-ethylphenyl)-4-oxothiazolidin-2-ylidene)-3-(4-(4-(1-(4-(trifluoromethoxy)phenyl)-1H-1,2,4-triazol-3-yl)phenyl)butyl)urea]
- mortality at 50 µg/cm2 [1]: 50 to 100%
- mortality at 50 µg/cm2 [2]: 50 to 100%
- mortality at 200 ppm [3]: 0%
- YFM % Control (or Mortality) rating [4]: A (80-100)

Structure (SMILES): Cc1ccc(C(C)C)c(N2C(=O)CS/C2=N\C(=O)NCCCCc2ccc(-c3ncn(-c4ccc(OC(F)(F)F)cc4)n3)cc2)c1 [P150, P363, (Z)-1-(3-(2-isopropyl-5-methylphenyl)-4-oxothiazolidin-2-ylidene)-3-(4-(4-(1-(4-(trifluoromethoxy)phenyl)-1H-1,2,4-triazol-3-yl)phenyl)butyl)urea]
- mortality at 50 µg/cm2 [1]: 50 to 100%
- mortality at 50 µg/cm2 [2]: 50 to 100%
- mortality at 200 ppm [3]: 0 to 80%
- YFM % Control (or Mortality) rating [4]: A (80-100)

Structure (SMILES): Cc1ccc(C(C)C)c(N2C(=O)CS/C2=N\C(=O)NCCCCc2ccc(-c3ncn(-c4ccc(C(F)(F)F)cc4)n3)cc2)c1 [P159, (Z)-1-(3-(2-isopropyl-5-methylphenyl)-4-oxothiazolidin-2-ylidene)-34-(4-(4-(1-(4-(trifluoromethyl)phenyl)-1H-1,2,4-triazol-3-yl)phenyl)butyl)urea]
- mortality at 50 µg/cm2 [1]: 50 to 100%
- mortality at 50 µg/cm2 [2]: 50 to 100%
- mortality at 200 ppm [3]: 0 to 80%
- YFM % Control (or Mortality) rating [4]: A (80-100)
